Results on 6 molecules are retold here after ChEMBL document CHEMBL3046796, “Evaluation of a new lead for acetylcholinesterase inhibition” (Med Chem Res, 2009).

Usually IC50 stands for the point on the concentration scale where inhibition reaches its midpoint. Read a high IC50 as a need for much substance. The term inhibition denotes how much of the control response was suppressed. Read a high inhibition as strong suppression.

The target of one test is Acetylcholinesterase (Electrophorus electricus, UniProt O42275). Description: Inhibition of Electrophorus electricus (electric eel) acetylcholinesterase (AChE) using […] as substrate by Ellman method. In general terms: DTNB colorimetry detects thiols as they appear.
Test [1] concerns the target Acetylcholinesterase (Electrophorus electricus) (UniProt O42275). The test can be described thus: Inhibition of Electrophorus electricus (electric eel) acetylcholinesterase (AChE) using […] as substrate at 10 '-5 M by Ellman method.
Test [2] concerns the target Cholinesterase (Equus caballus) (UniProt P81908). Description: Inhibition of Equus caballus (horse) serum butyrylcholinesterase (BChE) at 10 '-4 M by Ellman method.
Test [3] has the same target. Description: Inhibition of Equus caballus (horse) serum butyrylcholinesterase (BChE) at 10 '-5 M by Ellman method.

Acetylcholinesterase, sequence (O42275 whole entry): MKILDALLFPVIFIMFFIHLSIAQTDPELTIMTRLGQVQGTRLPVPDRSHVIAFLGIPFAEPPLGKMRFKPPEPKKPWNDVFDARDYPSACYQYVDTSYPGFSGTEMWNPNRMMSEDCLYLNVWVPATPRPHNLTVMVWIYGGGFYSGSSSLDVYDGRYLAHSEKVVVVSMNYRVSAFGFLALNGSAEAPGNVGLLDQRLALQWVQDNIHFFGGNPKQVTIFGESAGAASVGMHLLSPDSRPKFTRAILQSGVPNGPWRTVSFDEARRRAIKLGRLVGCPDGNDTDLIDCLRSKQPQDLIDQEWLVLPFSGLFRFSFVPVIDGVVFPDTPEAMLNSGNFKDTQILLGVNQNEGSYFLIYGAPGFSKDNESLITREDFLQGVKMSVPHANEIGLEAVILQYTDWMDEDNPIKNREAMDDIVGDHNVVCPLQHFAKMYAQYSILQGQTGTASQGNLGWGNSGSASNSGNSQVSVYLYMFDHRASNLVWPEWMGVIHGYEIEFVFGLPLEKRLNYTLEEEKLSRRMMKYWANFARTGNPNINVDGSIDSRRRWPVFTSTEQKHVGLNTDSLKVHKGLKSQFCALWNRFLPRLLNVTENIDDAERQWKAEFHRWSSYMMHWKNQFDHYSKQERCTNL
Cholinesterase (Equus caballus), sequence (P81908 whole entry): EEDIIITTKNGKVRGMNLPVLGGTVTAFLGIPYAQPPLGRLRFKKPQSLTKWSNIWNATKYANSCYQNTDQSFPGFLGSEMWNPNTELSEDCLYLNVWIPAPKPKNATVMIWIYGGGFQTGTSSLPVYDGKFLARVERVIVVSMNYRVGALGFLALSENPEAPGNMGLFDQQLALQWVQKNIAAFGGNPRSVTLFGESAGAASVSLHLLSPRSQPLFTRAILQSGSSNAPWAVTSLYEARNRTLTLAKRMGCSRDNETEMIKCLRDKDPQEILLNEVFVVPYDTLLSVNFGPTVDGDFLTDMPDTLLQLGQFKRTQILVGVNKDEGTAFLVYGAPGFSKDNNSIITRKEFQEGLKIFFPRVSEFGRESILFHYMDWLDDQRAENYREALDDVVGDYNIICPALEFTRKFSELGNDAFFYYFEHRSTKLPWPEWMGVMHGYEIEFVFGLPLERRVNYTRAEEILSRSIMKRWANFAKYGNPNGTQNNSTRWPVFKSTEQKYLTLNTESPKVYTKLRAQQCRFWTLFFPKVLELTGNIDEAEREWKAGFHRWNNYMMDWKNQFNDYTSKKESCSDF
Acetylcholinesterase (Electrophorus electricus), sequence (O42275 24-633 limits assumed): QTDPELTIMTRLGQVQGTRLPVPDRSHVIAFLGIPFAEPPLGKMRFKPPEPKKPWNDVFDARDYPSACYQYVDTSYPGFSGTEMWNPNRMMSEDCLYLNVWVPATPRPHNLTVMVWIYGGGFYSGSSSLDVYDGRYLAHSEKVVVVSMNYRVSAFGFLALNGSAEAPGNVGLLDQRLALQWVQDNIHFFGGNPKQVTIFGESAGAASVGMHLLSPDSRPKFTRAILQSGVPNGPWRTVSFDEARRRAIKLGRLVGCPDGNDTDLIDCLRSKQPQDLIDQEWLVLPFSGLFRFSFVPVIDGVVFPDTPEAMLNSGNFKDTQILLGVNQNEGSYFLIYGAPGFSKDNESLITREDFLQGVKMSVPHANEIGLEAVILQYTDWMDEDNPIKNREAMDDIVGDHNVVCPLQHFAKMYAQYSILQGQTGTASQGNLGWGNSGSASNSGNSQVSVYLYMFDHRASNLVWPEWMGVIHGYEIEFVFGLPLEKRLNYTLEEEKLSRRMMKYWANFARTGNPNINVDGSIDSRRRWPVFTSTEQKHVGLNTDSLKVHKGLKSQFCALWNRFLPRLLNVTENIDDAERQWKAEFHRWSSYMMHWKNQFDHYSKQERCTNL

On Acetylcholinesterase, `COc1ccc(C(O)c2nccc3cc(OC)c(OC)cc23)cc1OC` (stereo not drawn) came in with an IC50 of 10.7 µM.
In the case of `COc1ccc(CCNC(=O)Cc2ccc(OC)c(OC)c2)cc1OC`, the results for the inhibition in test [1], in test [2] and in test [3] were 5.9%, 1.7% and 0%, respectively.
Turning to `COc1ccc(Cc2nccc3cc(OC)c(OC)cc23)cc1OC` [PAPAVERINE], on Acetylcholinesterase, the IC50 is 24.3 µM.
As for `COc1ccc(CC2NCCc3cc(OC)c(OC)cc32)cc1OC` (stereo not drawn), the figures for the inhibition in test [1], in test [2] and in test [3] were 9%, 17.4% and 5.2%, respectively.
With `COc1ccc(CC2=NCCc3cc(OC)c(OC)cc32)cc1OC`, the inhibition in test [1] turned out to be 53%; in test [2] it was 18%; in test [3], 0%. This molecule also yielded an IC50 at Acetylcholinesterase of 7 µM.
In turn, `COc1ccc(C(=O)c2nccc3cc(OC)c(OC)cc23)cc1OC` had an inhibition in test [1] of 2.3%.
